{"source": "patent EP0405506A1", "about": "“Tetrapeptide type-B CCK receptor ligands” (ABBOTT LABORATORIES, priority 1989, dated 1991)", "key": {"CCK receptors": {"molecular_target": "T1, CCK receptors (Cavia porcellus, UniProt Q63931)", "T1 construct": "Cortical and pancreatic membranes were prepared as described; from tissue; host or cells: guinea pig pancreas membranes", "T1 sequence (Q63931 1-430)": "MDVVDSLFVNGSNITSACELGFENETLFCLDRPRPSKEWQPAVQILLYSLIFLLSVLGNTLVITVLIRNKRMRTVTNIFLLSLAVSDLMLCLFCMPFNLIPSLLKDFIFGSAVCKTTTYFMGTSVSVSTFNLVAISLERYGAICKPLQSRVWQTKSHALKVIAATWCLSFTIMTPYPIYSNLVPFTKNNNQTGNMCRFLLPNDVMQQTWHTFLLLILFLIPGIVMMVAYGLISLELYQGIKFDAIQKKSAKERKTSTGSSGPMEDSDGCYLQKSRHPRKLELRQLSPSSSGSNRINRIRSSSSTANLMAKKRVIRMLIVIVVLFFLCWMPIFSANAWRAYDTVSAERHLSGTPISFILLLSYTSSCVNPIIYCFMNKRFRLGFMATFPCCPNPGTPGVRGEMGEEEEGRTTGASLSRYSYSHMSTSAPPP", "experiment": "Radioligand binding ([125I]Bolton-Hunter CCK8) in guinea pig pancreatic membranes", "conditions": "displacement of [125I]BH-CCK8, pancreatic membranes, 37°C for 150 min, Hill analysis; read-out: IC₅₀ (uM) pancreas", "method": "EGTA, HEPES, BSA were purchased from Sigma Chemical Co. (St. Louis, MO). […] Male ginea pigs, 250 to 325 g, were obtained from Scientific Small Animal Laboratory and Farm (Arlington Heights, IL). Collangenase, code CLSPA was purchased from Worthington (Frehold, NJ).\nIn brief, pancreas and cortex were removed and rinsed with ice-cold saline. Visible fat and connective tissues were removed from the pancreas. Tissues were weighed and homogenized in approximately 25 mL of ice-cold 50 mM Tris-HCl buffer, pH 7.4 at 4°C with a Brinkman Polytron for 30 sec, setting 7. The homogenates were centrifuged for 10 min at 1075 x g and the pellet was discarded. The supernantants were saved and centrifuged at 38,730 x g for 20 min. The resultant pellets were rehomogenized in 25 mL of 50 mM Tris-HCl buffer with a Teflon-glass homogenizer, 5 up and down strokes. The homogenates were centrifuged again at 38,730 x g for 20 min. The pellets were then resuspended in 20 mM HEPES, containing 1 mM EGTA, 118 mM NaCl, 4.7 mM KCl, 5mM MgCl₂, 100 uM bestatin, 3 uM phosphoramidon, pH 7.4 at 22°C with a Teflon-glass homogenizer, 15 up and down strokes. The resuspension volume used for the cortex was 15 mL per g of original wet weight and 60 mL per g for pancreas.\nThe final BSA concentration was 0.1%. The cortical tissues were incubated at 30°C for 150 min. and pancreatic tissues were incubated at 37°C for 150 min. Incubations were terminated by filtration using Skatron Cell Harvester and SS32 microfiber filter mats. […] IC₅₀s were determined from the Hill analysis."}, "VTA neurons": {"system": "VTA neurons", "experiment": "Potentiation of ethanol-induced excitation of VTA neurons in rat brain slices (extracellular recording)", "assay_type": "cell-based, Sprague-Dawley rats", "conditions": "ethanol 80 to 160 mM, agonist infused at least 10 minutes before ethanol", "protocol": "Brain slices form Sprague-Dawley rats (100-200 gm) containing the ventral tegmental area were prepared as previously described (Brodie and Dunwiddie, Brain Research, 425, 106 (1987)). Animals used in this study were treated in strict accordance with the NIH Guide for the Care and use of Laboratory Animals. Coronal sections (400 um thick) were cut and the tissue was place directly in the recording chamber. Small platinum weights were placed on the slice to increase the stability of recordings. The slice was covered with medium and a superfusion system then maintained the flow of medium at 2 ml/min; the temperature in the recording chamber was kept at 35°C. […] The flow rate was continuously monitored with a flowmeter and adjustable valves were used to keep the rate constant. […]\nEthanol and the CCK agonist compound were added to the aCSF in the fluid delivery tubing by means of a calibrated infusion pump from stock solutions 100 to 1000 times the desired final concentrations. Final concentrations were calculated from aCSF flow rate, pump infusion rate and concentration of drug stock solution. […]\nFrequency of firing was determined using a window discriminator and ratemeter, the output of which was fed to a chart recorder. […]"}}}
{"smiles": "CCC[C@H]1CCN(C(=O)[C@@H]2Cc3c[nH]c4cccc(c34)CC(=O)N2)[C@@H]1C(=O)N[C@@H](CC(=O)O)C(=O)N[C@@H](Cc1ccccc1)C(N)=O", "note": "[Example 48, Ctp-Tpp-Asp-Phe-NH₂]", "values": [{"measurement": "IC50", "setting": "CCK receptors", "result": 3.5, "unit": "µM"}, {"measurement": "effect on excitatory effect of ethanol on VTA neurons (firing rate)", "setting": "VTA neurons", "result": "increases the excitatory effect of ethanol on VTA neurons"}]}
